From article PMC6151437, “Antibacterial Synthetic Peptides Derived from Bovine Lactoferricin Exhibit Cytotoxic Effect against MDA-MB-468 and MDA-MB-231 Breast Cancer Cell Lines” (Molecules : A Journal of Synthetic Chemistry and Natural …, 2017)
Bridge positions count the residues as written; N and C are the ends. Square brackets hold non-standard residues; d marks the D form. Peptide text beside a SMILES is read from it. I, II: the chains in the order shown. Ahx = NCCCCCC(=O)O

Experiments:
[1] = not given; remark: listed apart in the source

| SMILES | minimum concentration with maximum (optimal) cytotoxic effect [µM] | concentration of maximum cytotoxic effect [1] [µM] |
| --- | --- | --- |
| N=C(N)NCCC[C@H](NC(=O)[C@H](Cc1c[nH]c2ccccc12)NC(=O)[C@H](CCC(N)=O)NC(=O)[C@H](Cc1c[nH]c2ccccc12)NC(=O)[C@H](CCCNC(=N)N)NC(=O)[C@@H](N)CCCNC(=N)N)C(=O)NCCCC[C@H](NC(=O)[C@H](CCCNC(=N)N)NC(=O)[C@H](Cc1c[nH]c2ccccc12)NC(=O)[C@H](CCC(N)=O)NC(=O)[C@H](Cc1c[nH]c2ccccc12)NC(=O)[C@H](CCCNC(=N)N)NC(=O)[C@@H](N)CCCNC(=N)N)C(=O)NCCCCCC(=O)N[C@@H](CSSC[C@H](NC(=O)CCCCCNC(=O)[C@H](CCCCNC(=O)[C@H](CCCNC(=N)N)NC(=O)[C@H](Cc1c[nH]c2ccccc12)NC(=O)[C@H](CCC(N)=O)NC(=O)[C@H](Cc1c[nH]c2ccccc12)NC(=O)[C@H](CCCNC(=N)N)NC(=O)[C@@H](N)CCCNC(=N)N)NC(=O)[C@H](CCCNC(=N)N)NC(=O)[C@H](Cc1c[nH]c2ccccc12)NC(=O)[C@H](CCC(N)=O)NC(=O)[C@H](Cc1c[nH]c2ccccc12)NC(=O)[C@H](CCCNC(=N)N)NC(=O)[C@@H](N)CCCNC(=N)N)C(N)=O)C(N)=O (I: H-RRWQWRK[Ahx]C-NH2 / II: H-RRWQWRK[Ahx]C-NH2 / III: H-RRWQWR / IV: H-RRWQWR; amide I:7-III:C, II:7-IV:C; disulfide I:9-II:9) | 22 | – |
| CSCC[C@H](NC(=O)[C@H](CCCNC(=N)N)NC(=O)[C@H](Cc1c[nH]c2ccccc12)NC(=O)[C@H](CCC(N)=O)NC(=O)[C@H](Cc1c[nH]c2ccccc12)NC(=O)[C@H](CCCNC(=N)N)NC(=O)[C@@H](N)CCCNC(=N)N)C(=O)N[C@@H](CCCCN)C(=O)N[C@@H](CCCCN)C(=O)N[C@@H](CC(C)C)C(=O)NCC(=O)NCCCC[C@H](NC(=O)CNC(=O)[C@H](CC(C)C)NC(=O)[C@H](CCCCN)NC(=O)[C@H](CCCCN)NC(=O)[C@H](CCSC)NC(=O)[C@H](CCCNC(=N)N)NC(=O)[C@H](Cc1c[nH]c2ccccc12)NC(=O)[C@H](CCC(N)=O)NC(=O)[C@H](Cc1c[nH]c2ccccc12)NC(=O)[C@H](CCCNC(=N)N)NC(=O)[C@@H](N)CCCNC(=N)N)C(=O)NCCCCCC(N)=O (I: H-RRWQWRMKKLGK[Ahx]-NH2 / II: H-RRWQWRMKKLG; amide I:12-II:C) | – | 30 |
